#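 48-hour exposure; five concentrations; linearly interpolated endpoints. TGI is the concentration that stops growth completely.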
# What was measured:
# Assay in all cases: inhibition of tumour cell growth, NCI panel, 48 h
# [1] = tested on: MOLT-4 leukemia
# [2] = tested on: HCC-2998 colon
# [3] = tested on: CCRF-CEM leukemia
# [4] = tested on: U251 CNS
# [5] = tested on: SK-MEL-2 melanoma
# [6] = tested on: RXF-631 renal
# [7] = tested on: SN12C renal
# [8] = tested on: HT29 colon
# [9] = tested on: UO-31 renal
# [10] = tested on: NCI-H460 lung
# [11] = tested on: MALME-3M melanoma
# [12] = tested on: M19-MEL melanoma
# [13] = tested on: EKVX NSCLC
# [14] = tested on: NCI-H23 lung
# [15] = tested on: DMS 273 small cell lung
# [16] = tested on: OVCAR-3 ovarian
# [17] = tested on: OVCAR-5 ovarian
# [18] = tested on: HCT-15 colon
# [19] = tested on: UACC-257 melanoma
# [20] = tested on: OVCAR-4 ovarian
# [21] = tested on: K-562 leukemia
# [22] = tested on: SF-539 CNS
# [23] = tested on: SNB-78 CNS
# [24] = tested on: A549 NSCLC
# [25] = tested on: COLO 205 colon
# [26] = tested on: CAKI-1 renal
# [27] = tested on: ACHN renal
# [28] = tested on: 786-0 renal
# [29] = tested on: SK-MEL-28 melanoma
# [30] = tested on: SW-620 colon
# [31] = tested on: LXFL 529 NSCLC
# [32] = tested on: SF-295 CNS
# [33] = tested on: LOX IMVI melanoma
# [34] = tested on: KM12 colon
# [35] = tested on: SK-OV-3 ovarian
# [36] = tested on: HOP-92 NSCLC
# [37] = tested on: SNB-19 CNS
# [38] = tested on: UACC-62 melanoma
# [39] = tested on: HOP-62 NSCLC
# [40] = tested on: NCI-H226 lung
# [41] = tested on: HCT-116 colon
# [42] = tested on: RPMI-8226 leukemia
# [43] = tested on: KM20L2 colon
# [44] = tested on: IGROV1 ovarian
# [45] = tested on: SR leukemia
# [46] = tested on: SF-268 CNS
# [47] = tested on: A498 renal
# [48] = tested on: M14 melanoma
# [49] = tested on: DLD-1 colon
# [50] = tested on: HL-60(TB) leukemia
# [51] = tested on: NCI-H522 lung
# [52] = tested on: SNB-75 CNS
# [53] = tested on: HOP-18 NSCLC
# [54] = tested on: SK-MEL-5 melanoma
# [55] = tested on: OVCAR-8 ovarian
# [56] = tested on: TK-10 renal
# [57] = tested on: DMS 114 small cell lung
# [58] = tested on: RXF 393 renal
structure (smiles),measurement,setting,value
O=C1CCC(c2ccccc2)C(O)(C(=O)O)C1 (stereo unspecified),TGI,[1],> 100 µM
same,TGI,[2],> 100 µM
same,TGI,[3],> 100 µM
same,TGI,[4],> 100 µM
same,TGI,[5],> 100 µM
same,TGI,[6],> 100 µM
same,TGI,[7],> 100 µM
same,TGI,[8],> 100 µM
same,TGI,[9],> 100 µM
same,TGI,[10],> 100 µM
same,TGI,[11],> 100 µM
same,TGI,[12],> 100 µM
same,TGI,[13],> 100 µM
same,TGI,[14],> 100 µM
same,TGI,[15],> 100 µM
same,TGI,[16],> 100 µM
same,TGI,[17],> 100 µM
same,TGI,[18],> 100 µM
same,TGI,[19],> 100 µM
same,TGI,[20],> 100 µM
same,TGI,[21],> 100 µM
same,TGI,[22],> 100 µM
same,TGI,[23],> 100 µM
same,TGI,[24],> 100 µM
same,TGI,[25],> 100 µM
same,TGI,[26],> 100 µM
same,TGI,[27],> 100 µM
same,TGI,[28],> 100 µM
same,TGI,[29],> 100 µM
same,TGI,[30],> 100 µM
same,TGI,[31],> 100 µM
same,TGI,[32],> 100 µM
same,TGI,[33],> 100 µM
same,TGI,[34],> 100 µM
same,TGI,[35],> 100 µM
same,TGI,[36],> 100 µM
same,TGI,[37],> 100 µM
same,TGI,[38],> 100 µM
same,TGI,[39],> 100 µM
same,TGI,[40],> 100 µM
same,TGI,[41],> 100 µM
same,TGI,[42],> 100 µM
same,TGI,[43],> 100 µM
same,TGI,[44],> 100 µM
same,TGI,[45],> 100 µM
same,TGI,[46],> 100 µM
same,TGI,[47],> 100 µM
same,TGI,[48],> 100 µM
same,TGI,[49],> 100 µM
same,TGI,[50],> 100 µM
same,TGI,[51],> 100 µM
same,TGI,[52],> 100 µM
same,TGI,[53],> 100 µM
same,TGI,[54],> 100 µM
same,TGI,[55],> 100 µM
same,TGI,[56],> 100 µM
CCOC(=O)NC(=O)c1cn(CCCOC(=O)NCCCCCCNC(=O)OCCCn2c(=O)c(C(=O)NC(=O)OCC)cn(C)c2=O)c(=O)n(C)c1=O,TGI,[1],> 100 µM
same,TGI,[2],> 100 µM
same,TGI,[3],> 100 µM
same,TGI,[4],> 100 µM
same,TGI,[5],> 100 µM
same,TGI,[6],> 100 µM
same,TGI,[7],> 100 µM
same,TGI,[8],> 100 µM
same,TGI,[9],> 100 µM
same,TGI,[10],> 100 µM
same,TGI,[11],> 100 µM
same,TGI,[12],> 100 µM
same,TGI,[14],> 100 µM
same,TGI,[15],> 100 µM
same,TGI,[16],> 100 µM
same,TGI,[17],> 100 µM
same,TGI,[18],> 100 µM
same,TGI,[19],> 100 µM
same,TGI,[20],> 100 µM
same,TGI,[21],> 100 µM
same,TGI,[24],> 100 µM
same,TGI,[25],> 100 µM
same,TGI,[26],> 100 µM
same,TGI,[27],> 100 µM
same,TGI,[28],> 100 µM
same,TGI,[29],> 100 µM
same,TGI,[30],> 100 µM
same,TGI,[31],> 100 µM
same,TGI,[57],> 100 µM
same,TGI,[33],> 100 µM
same,TGI,[34],> 100 µM
same,TGI,[35],> 100 µM
same,TGI,[36],> 100 µM
same,TGI,[38],> 100 µM
same,TGI,[40],> 100 µM
same,TGI,[41],> 100 µM
same,TGI,[42],> 100 µM
same,TGI,[43],> 100 µM
same,TGI,[44],> 100 µM
same,TGI,[46],> 100 µM
same,TGI,[47],> 100 µM
same,TGI,[48],> 100 µM
same,TGI,[49],> 100 µM
same,TGI,[50],> 100 µM
same,TGI,[51],> 100 µM
same,TGI,[52],93.9 µM
same,TGI,[53],> 100 µM
same,TGI,[55],> 100 µM
same,TGI,[56],> 100 µM
same,TGI,[58],92.4 µM
